SMILES strings stand for the structures.

Here are results for 1 compound from patent publication US9345389B2, “Additional systems and methods for providing real-time anatomical guidance in a diagnostic or therapeutic procedure” (EMORY UNIVERSITY, priority 2010, dated 2016).

Series [1] concerns polyps. Briefly: Detection of murine GI polyps (Apcmin/+ FAP model) with SpectroPen. The class given is in vivo, mouse.
Description: This example describes the detection of polyps in the murine FAP model, Apcmin/+. This study was conducted in two mice. Two mice were injected with 2 mg/kg ICG. One mouse received ICG intravenously via a tail vein. The other mouse was administered ICG intraperitoneally. After ICG had circulated for 20 h, the mice were euthanized, the lower GI was removed, washed extensively, sectioned roughly into four segments; duodenum, jejunum, ilium, and cecum and colon, and formalin fixed. The mice were then imaged using the integrated imaging and spectroscopy imaging system as provided in this disclosure.
Intestinal segments were rinsed with PBS. […] Next the “SpectroPen” handheld probe was placed 1 cm above the intestinal tissue and clamped into that position for consistent repetitive acquisitions. The 1 cm space between the SpectroPen and the tissue correlates roughly to a 1 mm laser spot size. • 3. Spectra were acquired and recorded from apparently healthy sections of the intestine (considered background signal), and polyps. An integration time of 1 s was utilized. • 4.
Series [2] is described as follows: Optical properties of ICG. As to conditions: 785 nm excitation. In kind it is physicochemical. An excerpt: The ability of the handheld spectroscopic pen device to differentiate contrast agent signals from the autofluorescence and Raman scattering of major tissue/organ types (i.e. fat, liver and lung) was first examined. […] At 785 nm excitation, ICG has a fluorescence peak at 816 nm, while fat has a background fluorescence peak at 805 nm plus resolvable Raman signals at 862, 1070, 1297, 1439, and 1652 cm^−1 (corresponding to 842, 857, 874, 885, and 902 nm in wavelength, respectively). ICG buried in fat has identifiable contributions of both ICG and fat (e.g., ICG fluorescence at 816 nm and the fat Raman peaks at 874 and 885 nm).

For series [3] the following is noted: after intravenous administration, bound to serum proteins; cited from earlier work.
For series [4], the system named is 4T1 breast tumors. Description: In vivo and intra-operative tumor detection with handheld spectroscopic pen device. More on the design: species or system mouse. The conditions noted are these: ICG 357 μg/kg i.v. On the procedure: All in vivo murine studies were performed under an approved protocol by the Emory University IACUC. The mouse mammary carcinoma cell line 4T1, which stably expresses a firefly luciferase gene, was obtained from Dr. Lily Yang at Emory University (Atlanta, Ga.). 4T1 cells were cultured in DMEM containing 10% FBS and 1× antibiotic/antimycotic agent. Prior to injection into mice, the cells were washed two times with PBS and diluted in sterile PBS to a final concentration of 2×10^7 cells/mL. Mammary tumors were inoculated into nude mice by the subcutaneous administration of 2×10^6 4T1 cells into the mouse flank. Once the tumors were approximately 4 mm in diameter, ICG was administered intravenously (i.v.) via a tail vein at a dose of 357 μg/kg. After 24 h, mice were anesthetized by intraperitoneal (i.p.) injection of a 2.5% solution of tribromoethanol (350 mg/kg). Tumor-bearing mice undergoing bioluminescence imaging were administered i.p. 100 μL, of a luciferin solution (30 mg/mL). Bioluminescent images were acquired on a Kodak In-Vivo FX Imaging System from Carestream Molecular Imaging (Rochester, N.Y.). Corresponding bright-field images were taken for anatomical reference of the bioluminescence signal. A series of spectra were acquired on tumor-bearing mice using the handheld spectroscopic pen device. First, the position of the handheld spectroscopic pen device was fixed to about 1-2 cm above the location of the acquisition area on the mouse. Spectra were collected in 1 s and were obtained from several locations, including directly over the center of the tumor and the peritumoral region. After the spectra were acquired, the integrated signal intensity was calculated. The signal intensity was compared to both the bright-field anatomical location and the bioluminescence signal.
In vivo investigations were conducted to test the ability of the handheld spectroscopic pen device to detect intratumoral deposition of ICG after intravenous infusion. This contrast agent has been approved by the U.S. Food and Drug Administration (FDA) and is indicated for various uses in humans, such as for determining cardiac output, hepatic function and liver blood flow, and for ophthalmic angiography. To assess degree of tumor contrast enhancement using ICG, mice were used in which 4T1 tumor cells (2×10^6 in number) were subcutaneously injected 18 days prior to imaging. The tumor cells were genetically engineered to express the firefly luciferase gene; intravenous injection of luciferin after tumor development causes these cells to emit bioluminescent light and allows one to determine the precise location of tumors using bioluminescence imaging. […]

For series [5] the following is noted: stated as known; cited from earlier work.
Series [6] can be described thus: Inspection of internal organs and behavior for toxicity in Apcmin/+ mice.
Description: This study was conducted in two mice. Two mice were injected with 2 mg/kg ICG. One mouse received ICG intravenously via a tail vein. The other mouse was administered ICG intraperitoneally. After ICG had circulated for 20 h, the mice were euthanized, the lower GI was removed, washed extensively, sectioned roughly into four segments; duodenum, jejunum, ilium, and cecum and colon, and formalin fixed. The mice were then imaged using the integrated imaging and spectroscopy imaging system as provided in this disclosure.
Since these doses were at the maximum recommended dose, the internal organs were briefly inspected for any aberrant signs of toxicity.

Take `CC1(C)C(/C=C/C=C/C=C/C=C2\N(CCCCS(=O)(=O)O)c3ccc4ccccc4c3C2(C)C)=[N+](CCCCS(=O)(=O)[O-])c2ccc3ccccc3c21` [ICG, Indocyanine green]: the “ICG signal in polyps vs background” value in series [1] (2 mg/kg ICG intraperitoneally, 20 h, GI tract ex vivo) is on record as “greater than in the background”. Further, in series [1] (2 mg/kg ICG intravenously, 20 h, GI tract ex vivo), the “ICG signal in polyps vs background tissue” value is “higher signal in polyps then in the background tissue”. Moreover, in series [1] (2 mg/kg ICG, 20 after injection), the “signal in GI tract, i.p. vs i.v. route” value was “larger signal in the GI tract compared to mouse injected i.v”. Further, in series [1] (Apcmin/+ mouse, colon, 2 mg/kg ICG i.v., 20 h), the “signal from colon polyp compared to background” value is not below 5 fold. The compound also had a fluorescence peak in series [2] of 816 nm. Also, the “hydrodynamic size (diameter) after protein binding” value in series [3] is given as 6-8 nm. For the same compound, the “signal of excised tumors vs surgical cavity” value in series [4] (after surgical removal) stood at 10 fold. In series [4] (mice with 4T1 tumors, 24 h), the “integrated signal intensity, tumor areas vs normal regions” value is given as approximately 10 times and the “signal at adjacent edges (less than 2 mm from the tumor) vs more remote areas” value was 5-6 times. For the same compound, the “ICG signal at positive surgical margin vs adjacent tissue” value in series [4] (residual tumor at margin of cavity) is 5 times. The route of excretion entry in series [5] was “secreted entirely into bile”. In addition, the “appearance of internal organs” value in series [6] (2 mg/kg ICG intraperitoneally, 20 h, patent attributes to anemia from polyps) was “pale color was immediately noticed, especially in the liver and kidneys”. For the same compound, the behavioral changes result in series [6] (2 mg/kg ICG via tail vein) is “no dramatic behavioral changes”.
